Test results taken from patent publication US7807703B2, “Substituted aryl ketones” (Bayer CropScience AG, priority 2002, dated 2010).

experiment: log P determination by reversed-phase HPLC (EEC Directive 79/831 Annex V.A8; acidic or neutral mobile phase); type: physicochemical; conditions: HPLC, reversed-phase C18, 43° C.; acidic range a): 0.1% aqueous phosphoric acid, acetonitrile, linear gradient 10% to 90% acetonitrile
Description: The log P values given in the table were determined in accordance with EEC Directive 79/831 Annex V.A8 by HPLC (High Performance Liquid Chromatography) using a reversed-phase column (C 18). Temperature: 43° C.
(a) Mobile phases for the determination in the acidic range: 0.1% aqueous phosphoric acid, acetonitrile; linear gradient from 10% acetonitrile to 90% acetonitrile—the corresponding measurement results are marked a) in Table 1.
(b) Mobile phases for the determination in the neutral range: 0.01 molar aqueous phosphate buffer solution, acetonitrile; linear gradient from 10% acetonitrile to 90% acetonitrile—the corresponding measurement results are marked b) in Table 1.

Compound	logP
CCn1ncc(C(=O)c2ccc(Br)c(OCCNS(=O)(=O)CC)c2C)c1O [Example 362]	logP = 2.09^a)
CCS(=O)(=O)NCCOc1c(Br)ccc(C(=O)c2cnn(C)c2O)c1C [Example 363]	logP = 1.77^a)
CCS(=O)(=O)NCCOc1c(Br)ccc(C(=O)C2C(=O)CCCC2=O)c1C [Example 364]	logP = 2.41^a)
CCn1ncc(C(=O)c2ccc(Br)c(OCCNS(C)(=O)=O)c2C)c1O [Example 365]	logP = 1.89^a)
Cc1c(C(=O)c2cnn(C)c2O)ccc(Br)c1OCCNS(C)(=O)=O [Example 366]	logP = 1.56^a)
Cc1c(C(=O)C2C(=O)CCCC2=O)ccc(Br)c1OCCNS(C)(=O)=O [Example 367]	logP = 2.19^a)
CCN(Cc1c(S(C)(=O)=O)ccc(C(=O)c2cnn(C)c2O)c1Cl)OC [Example 369]	logP = 1.84^a)
CCn1ncc(C(=O)c2ccc(S(C)(=O)=O)c(CN(OC)C(C)C)c2Cl)c1O [Example 370]	logP = 2.52^a)
CON(Cc1c(S(C)(=O)=O)ccc(C(=O)c2cnn(C)c2O)c1Cl)C(C)C [Example 371]	logP = 2.16^a)
CCn1ncc(C(=O)c2ccc(S(C)(=O)=O)c(CN(OC)C(C)C3CC3)c2Cl)c1O (stereo not shown) [Example 373]	(I-2) logP = 2.94^a)
CON(Cc1c(S(C)(=O)=O)ccc(C(=O)c2cnn(C)c2O)c1Cl)C(C)C1CC1 (stereo not shown) [Example 374]	(I-2) logP = 2.53^a)
CON(Cc1c(S(C)(=O)=O)ccc(C(=O)c2cnn(C)c2O)c1Cl)C1CCCC1 [Example 378]	(I-2) logP = 2.59^a)
CCn1ncc(C(=O)c2ccc(S(C)(=O)=O)c(CN(OC)C3CCCC3)c2Cl)c1O [Example 379]	(I-2) logP = 2.99^a)
CON(Cc1cccnc1)Cc1c(S(C)(=O)=O)ccc(C(=O)c2cnn(C)c2O)c1Cl [Example 386]	(I-2) logP = 0.64^a)
CCN(CC)C(=O)CN(Cc1c(S(C)(=O)=O)ccc(C(=O)c2cnn(C)c2O)c1Cl)OC [Example 388]	(I-2) logP = 1.59^a)
CCN(CC)C(=O)CN(Cc1c(S(C)(=O)=O)ccc(C(=O)c2cnn(CC)c2O)c1Cl)OC [Example 389]	(I-2) logP = 1.85^a)
CCON(CC)Cc1c(S(C)(=O)=O)ccc(C(=O)C2C(=O)CCCC2=O)c1Cl [Example 390]	logP = 3.22^a)
CCON(Cc1c(S(C)(=O)=O)ccc(C(=O)c2cnn(CC)c2O)c1Cl)C(C)C [Example 392]	logP = 2.89^a)
CC(C)ON(C)Cc1c(S(C)(=O)=O)ccc(C(=O)C2C(=O)CCCC2=O)c1Cl [Example 393]	logP = 3.14^a)
CCn1ncc(C(=O)c2ccc(S(C)(=O)=O)c(CN(C)OC(C)C)c2Cl)c1O [Example 395]	logP = 2.33^a)
CON(CC(=O)N(C)C)Cc1c(S(C)(=O)=O)ccc(C(=O)C2C(=O)CCCC2=O)c1Cl [Example 396]	(I-2) logP = 1.93^a)
CCn1ncc(C(=O)c2ccc(S(C)(=O)=O)c(CN(C)OC3CCCC3)c2Cl)c1O [Example 397]	(I-2) logP = 2.87^a)
CN(Cc1c(S(C)(=O)=O)ccc(C(=O)C2C(=O)CCCC2=O)c1Cl)OC1CCCC1 [Example 398]	(I-2) logP = 3.69^a)
CC(C)ON(Cc1c(S(C)(=O)=O)ccc(C(=O)C2C(=O)CCC(C)(C)C2=O)c1Cl)C(C)C (stereo not shown) [Example 399]	(I-2) logP = 4.80^a)
CC(C)ON(Cc1c(S(C)(=O)=O)ccc(C(=O)c2cnn(C)c2O)c1Cl)C(C)C [Example 400]	logP = 2.81^a)
CS(=O)(=O)c1ccc(C(=O)C2C(=O)CCCC2=O)c(Cl)c1CNOC1CCCC1 [Example 401]	(I-2) logP = 3.07^a)

Compound	logP
CCN(Cc1c(S(C)(=O)=O)ccc(C(=O)C2C(=O)CCCC2=O)c1Cl)OC(C)C [Example 402]	logP = 3.52^a)
CCN(Cc1c(S(C)(=O)=O)ccc(C(=O)C2C(=O)CCC(C)(C)C2=O)c1Cl)OC(C)C (stereo not shown) [Example 403]	(I-2) logP = 4.36^a)
CCN(Cc1c(S(C)(=O)=O)ccc(C(=O)c2cnn(CC)c2O)c1Cl)OC(C)C [Example 404]	logP = 2.79^a)
CCN(Cc1c(S(C)(=O)=O)ccc(C(=O)C2C(=O)CCC(C)(C)C2=O)c1Cl)OC (stereo not shown) [Example 405]	(I-2) logP = 3.70^a)
CCN(Cc1c(S(C)(=O)=O)ccc(C(=O)c2c(C)nn(CC)c2O)c1Cl)OC [Example 406]	(I-2) logP = 2.04^a)
CCN(Cc1c(S(C)(=O)=O)ccc(C(=O)c2c(C)nn(C)c2O)c1Cl)OC [Example 407]	(I-2) logP = 1.76^a)
CON(Cc1c(S(C)(=O)=O)ccc(C(=O)C2C(=O)CCCC2=O)c1Cl)CC1CCOC1 (stereo not shown) [Example 408]	(I-2) logP = 2.50^a)
CON(Cc1c(S(C)(=O)=O)ccc(C(=O)C2C(=O)CCCC2=O)c1Cl)C1CCOC1 (stereo not shown) [Example 409]	(I-2) logP = 2.32^a)
CCn1ncc(C(=O)c2ccc(S(C)(=O)=O)c(CN(OC)C3CCOC3)c2Cl)c1O (stereo not shown) [Example 410]	(I-2) logP = 1.70^a)
CON(Cc1c(S(C)(=O)=O)ccc(C(=O)C2C(=O)CCCC2=O)c1Cl)C1CCCOC1 (stereo not shown) [Example 411]	(I-2) logP = 2.74^a)
CCn1ncc(C(=O)c2ccc(S(C)(=O)=O)c(CN(OC)C3CCCOC3)c2Cl)c1O (stereo not shown) [Example 412]	(I-2) logP = 2.01^a)
CCON(C)Cc1c(S(C)(=O)=O)ccc(C(=O)c2cnn(CC)c2O)c1Cl [Example 413]	logP = 2.09^a)
CCON(C)Cc1c(S(C)(=O)=O)ccc(C(=O)c2cnn(C)c2O)c1Cl [Example 414]	logP = 1.71^a)
CCON(Cc1c(S(C)(=O)=O)ccc(C(=O)C2C(=O)CCCC2=O)c1Cl)CC1CCOC1 (stereo not shown) [Example 415]	(I-2) logP = 2.84^a)
CCON(Cc1c(S(C)(=O)=O)ccc(C(=O)c2cnn(CC)c2O)c1Cl)CC1CCOC1 (stereo not shown) [Example 416]	(I-2) logP = 2.11^a)
CCn1ncc(C(=O)c2ccc(S(C)(=O)=O)c(CN(CC3CCOC3)OC3CCCC3)c2Cl)c1O (stereo not shown) [Example 417]	(I-2) logP = 2.76^a)
CCON(Cc1c(S(C)(=O)=O)ccc(C(=O)C2C(=O)CCCC2=O)c1Cl)C(C)C [Example 418]	logP = 3.66^a)
CON(CC(=O)N(C)C)Cc1c(S(C)(=O)=O)ccc(C(=O)C2C(=O)CCC(C)(C)C2=O)c1Cl (stereo not shown) [Example 419]	(I-2) logP = 2.58^a)
CC(C)ON(Cc1c(S(C)(=O)=O)ccc(C(=O)C2C(=O)CCCC2=O)c1Cl)C(C)C [Example 420]	logP = 3.99^a)
CCn1ncc(C(=O)c2ccc(S(C)(=O)=O)c(CN(OC(C)C)C(C)C)c2Cl)c1O [Example 421]	logP = 3.25^a)
CCn1ncc(C(=O)c2ccc(S(C)(=O)=O)c(CNOC3CCCC3)c2Cl)c1O [Example 422]	(I-2) logP = 2.31^a)
CCn1ncc(C(=O)c2ccc(S(C)(=O)=O)c(CN(CC3CCOC3)OC)c2Cl)c1O (stereo not shown) [Example 423]	(I-2) logP = 1.97^a)
CCON(C)Cc1c(S(C)(=O)=O)ccc(C(=O)C2C(=O)CCCC2=O)c1Cl [Example 424]	logP = 2.82^a)
CCON(C)Cc1c(S(C)(=O)=O)ccc(C(=O)C2C(=O)CCC(C)(C)C2=O)c1Cl (stereo not shown) [Example 425]	(I-2) logP = 3.65^a)
CS(=O)(=O)c1ccc(C(=O)C2C(=O)CCCC2=O)c(Cl)c1CN(CC1CCOC1)OC1CCCC1 (stereo not shown) [Example 426]	(I-2) logP = 3.53^a)
CCON(Cc1c(S(C)(=O)=O)ccc(C(=O)c2cnn(C)c2O)c1Cl)CC1CCOC1 (stereo not shown) [Example 427]	(I-2) logP = 1.90^a)
